Data from patent US7700584B2 (Hangzhou Minsheng Pharmaceuticals Co., Ltd., priority 2004, dated 2010).
Counter-ions that a name gives are not always drawn.

How the values were obtained:
[1] = test system: A-549 human lung adenocarcinoma; assay: In vitro anti-tumor IC50 (MTT), A-549; assay type: cell-based; conditions: Table 4; hydrochloride
Protocol: (§1) (1) Single cell suspension was seeded into 96-well plates (the cells was diluted in the PRMI-1640 minimum medium to 3×10^4 cells/ml, […] diluted cells/well). […] The experiments were performed in quadruplicate.
(§2) (2) The medium was removed. Solutions of the anti-tumor agents (50 compounds) were prepared in a freshly prepared medium at serial concentrations. […] of the solution was added into each well. Incubation was continued for 48 hours.
(§3) (3) 20 ug of 2 mg/ml MTT was added into each well, and incubated for 4 hours.
(§4) (4) The medium was removed from the well. The microplates were swiftly turned down to throw-off the medium. […] of DMSO was added into each well, and vortexed at room temperature for 10 minutes.
(§5) (5) OD value (λ=570 nm) was measured with an Enzyme-Linked Detector.
(§6) (6) The graph of cell vitality was plotted, and IC50 was calculated.

[2] = test system: Bel-7402 human hepatic carcinoma; assay: In vitro anti-tumor IC50 (MTT), Bel-7402; assay type: cell-based; conditions: Table 4; hydrochloride
Protocol: as §1, §2, §3, §4, §5, §6

[3] = test system: LLC mouse Lewis lung carcinoma; assay: In vitro anti-tumor IC50 (MTT), LLC; assay type: cell-based; conditions: Table 4; hydrochloride
Protocol: as §1, §2, §3, §4, §5, §6

[4] = test system: SMMC-7721 human hepatic carcinoma; assay: In vitro anti-tumor IC50 (MTT), SMMC-7721; assay type: cell-based; conditions: Table 4; hydrochloride
Protocol: as §1, §2, §3, §4, §5, §6

[5] = test system: mouse grafted sarcoma S-180; assay: Activity against mouse grafted sarcoma S-180; assay type: in vivo, Kunming mice; conditions: for Inhibition rate (%) / Tumor weight: 6 doses; for Tumor weight: X ± SD, n = 10; for Average weight (g)-after administration / Average weight(g)-after administration: mouse, in vivo, iv
Outline: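 Male Kunming mice inoculated axillarily with S-180, 10 per group, given 10% compound solutions IV at 0.4, 0.2 or 0.1 ml/mouse from the day after inoculation, alternate days, 6 doses. Tumours excised the day after last dose; inhibition rate from mean tumour weight versus saline control; repeated three times.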

[6] = test system: mouse grafted liver cancer H22; assay: Activity against mouse grafted liver cancer H22; assay type: in vivo, Kunming mice; conditions: for Tumor weight: X ± SD, n = 10; for Average weight (g)-after administration / Average weight(g)-after administration: mouse, in vivo
Outline: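 Male Kunming mice inoculated with liver cancer H22, 10 per group; compounds (10%, 0.4, 0.2 or 0.1 ml/mouse) injected from the day after inoculation on alternate days, 6 doses. Tumours excised the day after last dose; inhibition rate from mean tumour weight versus saline controls; repeated three times.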

mouse lung cancer Lewis = assay: Activity against mouse grafted lung cancer Lewis; assay type: in vivo, Kunming mice; conditions: for Inhibition rate (%) / Tumor weight: Lewis; for Tumor weight: X ± SD, n = 10
[7] = test system: eight selected tumor cell lines; assay: In vitro anti-tumor IC50, summary over the selected tumor cell lines; assay type: cell-based; conditions: all eight cell lines
Protocol: as §1, §2, §3, §4, §5, §6

[8] = S-180, first experiment, 10 mg/kg i.v.
[9] = S-180, first experiment, 20 mg/kg i.v.
[10] = S-180, first experiment, 40 mg/kg i.v.
[11] = S-180, second experiment, 10 mg/kg i.v.
[12] = S-180, second experiment, 20 mg/kg i.v.
[13] = S-180, second experiment, 40 mg/kg i.v.
[14] = three different concentrations (40, 20, 10 mg/kg), i.v.
[15] = H22, first experiment, 10 mg/kg i.v., 6 doses
[16] = H22, first experiment, 20 mg/kg i.v., 6 doses
[17] = H22, first experiment, 40 mg/kg i.v., 6 doses
[18] = H22, second experiment, 10 mg/kg
[19] = H22, second experiment, 20 mg/kg
[20] = H22, second experiment, 40 mg/kg
[21] = H22, third experiment, 10 mg/kg
[22] = H22, third experiment, 20 mg/kg
[23] = H22, third experiment, 40 mg/kg

CC(C)C1CC23OC1(O)C/C(=C\Nc1ccc(O)cc1)C2CCC3C (stereo not shown) [Compound 6, Curcumol p-hydroxy aniline hydrochloride]
IC50 (ug/ml) against tumor cell lines, A-549 [1]: 2.1 µg/mL | IC50 (ug/ml) against tumor cell lines, Bel-7402 [2]: 1.0 µg/mL | IC50 (ug/ml) against tumor cell lines, LLC [3]: 3.8 µg/mL | IC50 (ug/ml) against tumor cell lines, SMMC-7721 [4]: 4.0 µg/mL | Inhibition rate (%) [5, 8]: 56% | Tumor weight [5, 8]: 1.1 ± 0.31 g | Inhibition rate (%) [5, 9]: 68.4% | Tumor weight [5, 9]: 0.79 ± 0.21 g | Inhibition rate (%) [5, 10]: 75.2% | Tumor weight [5, 10]: 0.62 ± 0.34 g | Inhibition rate (%) [5, 11]: 57.7% | Tumor weight [5, 11]: 1.1 ± 0.31 g | Inhibition rate (%) [5, 12]: 68.8% | Tumor weight [5, 12]: 0.82 ± 0.32 g | Inhibition rate (%) [5, 13]: 72.7% | Tumor weight [5, 13]: 0.71 ± 0.44 g | Average weight (g)-after administration ([5]; 10 mg/kg): 22.3 g | Average weight(g)-after administration ([5]; 10 mg/kg): 22.3 g | Average weight (g)-after administration ([5]; 20 mg/kg): 22.9 g | Average weight(g)-after administration ([5]; 20 mg/kg): 21.9 g | Average weight (g)-after administration ([5]; 40 mg/kg): 22.0 g | Average weight(g)-after administration ([5]; 40 mg/kg): 22.0 g | inhibitory effect against mouse sarcoma S-180 (in words) [5, 14]: good inhibitory effect | Inhibition rate (%) [6, 15]: 7.0% | Tumor weight [6, 15]: 2.8 ± 0.37 g | Inhibition rate (%) [6, 16]: 47.0% | Tumor weight [6, 16]: 1.60 ± 0.29 g | Inhibition rate (%) [6, 17]: 61.9% | Tumor weight [6, 17]: 1.15 ± 0.31 g | Inhibition rate (%) [6, 18]: 13.9% | Tumor weight [6, 18]: 2.6 ± 0.37 g | Inhibition rate (%) [6, 19]: 47.7% | Tumor weight [6, 19]: 1.58 ± 0.29 g | Inhibition rate (%) [6, 20]: 60.3% | Tumor weight [6, 20]: 1.21 ± 0.31 g | Inhibition rate (%) [6, 21]: 7.3% | Tumor weight [6, 21]: 2.8 ± 0.37 g | Inhibition rate (%) [6, 22]: 46.0% | Tumor weight [6, 22]: 1.63 ± 0.29 g | Inhibition rate (%) [6, 23]: 56.9% | Tumor weight [6, 23]: 1.30 ± 0.31 g | Average weight (g)-after administration ([6]; 10 mg/kg): 21.2 g | Average weight(g)-after administration ([6]; 10 mg/kg): 21.0 g | Average weight (g)-after administration ([6]; 20 mg/kg): 20.0 g | Average weight(g)-after administration ([6]; 20 mg/kg): 22.0 g | Average weight (g)-after administration ([6]; 40 mg/kg): 21.4 g | Average weight(g)-after administration ([6]; 40 mg/kg): 22.4 g | Average weight(g)-after administration ([6]; iv, 10 mg/kg): 22.0 g | Average weight(g)-after administration ([6]; iv, 20 mg/kg): 22.2 g | Average weight(g)-after administration ([6]; iv, 40 mg/kg): 22.1 g | inhibitory effect against mouse grafted liver cancer H22 (in words) [6, 14]: good inhibitory effect | Inhibition rate (%) (mouse lung cancer Lewis; first experiment, 10 mg/kg): 29.5% | Tumor weight (mouse lung cancer Lewis; first experiment, 10 mg/kg): 2.10 ± 0.37 g | Inhibition rate (%) (mouse lung cancer Lewis; first experiment, 20 mg/kg): 42.6% | Tumor weight (mouse lung cancer Lewis; first experiment, 20 mg/kg): 1.71 ± 0.29 g | Inhibition rate (%) (mouse lung cancer Lewis; first experiment, 40 mg/kg): 51.7% | Tumor weight (mouse lung cancer Lewis; first experiment, 40 mg/kg): 1.44 ± 0.31 g | Inhibition rate (%) (mouse lung cancer Lewis; second experiment, 10 mg/kg): 25.3% | Tumor weight (mouse lung cancer Lewis; second experiment, 10 mg/kg): 1.80 ± 0.37 g | Inhibition rate (%) (mouse lung cancer Lewis; second experiment, 20 mg/kg): 44.4% | Tumor weight (mouse lung cancer Lewis; second experiment, 20 mg/kg): 1.34 ± 0.29 g | Inhibition rate (%) (mouse lung cancer Lewis; second experiment, 40 mg/kg): 50.6% | Tumor weight (mouse lung cancer Lewis; second experiment, 40 mg/kg): 1.19 ± 0.31 g | Inhibition rate (%) (mouse lung cancer Lewis; third experiment, 10 mg/kg): 33.3% | Tumor weight (mouse lung cancer Lewis; third experiment, 10 mg/kg): 1.80 ± 0.37 g | Inhibition rate (%) (mouse lung cancer Lewis; third experiment, 20 mg/kg): 47.4% | Tumor weight (mouse lung cancer Lewis; third experiment, 20 mg/kg): 1.42 ± 0.29 g | Inhibition rate (%) (mouse lung cancer Lewis; third experiment, 40 mg/kg): 52.6% | Tumor weight (mouse lung cancer Lewis; third experiment, 40 mg/kg): 1.28 ± 0.31 g | inhibitory effect against mouse lung cancer Lewis (mouse lung cancer Lewis; first of three concentrations (40 mg/kg)): 51.6% | inhibitory effect against mouse lung cancer Lewis (mouse lung cancer Lewis; second of three concentrations (20 mg/kg)): 44.8% | inhibitory effect against mouse lung cancer Lewis (mouse lung cancer Lewis; third of three concentrations (10 mg/kg)): 29.4% | inhibitory effect to all the eight selected tumor cell lines (in words) [7]: strong inhibitory effect
